Test: Orlistat transfer into oil in vitro
Type: physicochemical
Details: after 10 min
Method: Orlistat (4 mg) suspensions stabilized by sucroseesters (2 mg) were transferred into 5 ml of a 10% oil in water emulsion (pH value 4.5; oil components: olive oil and cream respectively). The dispersion underwent end-over end mixing for a desired period of time. The oil phase was separated by cold centrifugation and the orlistat content in the oil phase was determined by HPLC. For comparison, an adequate experiment was also performed with a suspension of XENICAL® brand of orlistat-containing pharmaceutical composition. L-1695, P-1670, S-1670, O-1570 are commercial sucroseesters (Sucroselaurate, Sucrosepalmitate, Sucrosestearate, Sucroseoleate respectively) from Mitsubishi-Kagaku Foods, Japan.

With `CCCCCCCCCCC[C@@H](C[C@@H]1OC(=O)[C@H]1CCCCCC)OC(=O)[C@H](CC(C)C)NC=O` [orlistat] the “transfer into olive oil, times more efficient than transfer into cream” value was 7.

From patent US8343543B2, “Lipase inhibiting composition” (Hoffmann-La Roche Inc., priority 2001, dated 2013)
